Assay results from patent US11331299B2, “Medicinal use of serrulatane diterpenes” (The University of Sydney, priority 2016, dated 2022).
pEC50, pIC50: −log10 of the molar value. Where two headings read alike, the source gives them in different places.

Test system: 280 human cancer cell lines
Test: OncoPanel cell proliferation assay (10-day)
Format: cell-based
Settings: for pEC50: read-out: Cell Count EC50; for pIC50: read-out: Cell Count IC50
[1] = Homo sapiens, 22Rv1, 22Rv1, Prostate
[2] = Homo sapiens, 786-0, 786-O, Kidney
[3] = Homo sapiens, A7, Skin (Melanoma)
[4] = Homo sapiens, A101D, Skin (Melanoma)
[5] = Homo sapiens, A 172, A172, CNS - Glioma
[6] = Homo sapiens, A253, A-253, Head and Neck
[7] = Homo sapiens, A388, Head and Neck
[8] = Homo sapiens, A498, A498, Kidney
[9] = Homo sapiens, A549, A549, Lung - NSCLC
[10] = Homo sapiens, A673, A-673, Soft Tissue - Sarcoma
[11] = Homo sapiens, A704, A-704, Kidney
[12] = Homo sapiens, A-375, A375, Skin (Melanoma)
[13] = Homo sapiens, A-427, A427, Lung - NSCLC
[14] = Homo sapiens, A-431, A431, Head and Neck
[15] = Homo sapiens, AN3-CA, AN3 CA, Female GU - Uterus
[16] = Homo sapiens, ARH-77, ARH-77, Myeloma
[17] = Homo sapiens, ASPC1, AsPC-1, Pancreas
[18] = Homo sapiens, AU565, AU565, Breast
[19] = Homo sapiens, BCP-1, BCP-1, Lymphoma
[20] = Homo sapiens, BE(2)-C, BE(2)C, CNS - Neuroblastoma
[21] = Homo sapiens, BFTC-905, BFTC-905, Bladder
[22] = Homo sapiens, BHT-101, BHT-101, Endocrine - Thyroid
[23] = Homo sapiens, BM-1604, BM-1604, Prostate
[24] = Homo sapiens, BPH-1, BPH1, Prostate
[25] = Homo sapiens, BT-20, BT20, Breast

## CC(C)=CCC[C@H](C)[C@@H]1CC[C@@H](C)c2c1cc(C)c(O)c2O [Compound 4, 7,8-dihydroxyserrulat-14-ene]
GI50 range 0.03-0.099 μM, of 280 cell types
  Number of cell types, GI Activity Potent: 0
GI50 range 0.1-0.99 μM, of 280 cell types
  Number of cell types, GI Activity moderately potent: 1
GI50 range 1-2.99 μM, of 280 cell types
  Number of cell types, GI Activity Strong: 11
GI50 range 3-9.99 μM, of 280 cell types
  Number of cell types, GI Activity moderately strong: 125
GI50 range 10-30.00 μM, of 280 cell types
  Number of cell types, GI Activity weak: 130
GI50 range >30 μM, of 280 cell types
  Number of cell types, GI Activity very weak: 13
Homo sapiens, 12 cell lines with moderately potent to strong activity, read-out: GI50
  GI50: 0.68 to 2.92 µM
[1]
  pEC50: 5.04
  pIC50: 5.04
Homo sapiens, 22Rv1, 22Rv1, Prostate, read-out: Cell Count GI50
  GI50: 9 µM
Homo sapiens, 647-V, Bladder
  pEC50: 5.22
  pIC50: 5.22
Homo sapiens, 647-V, Bladder, read-out: Cell Count GI50
  GI50: 5.99 µM
Homo sapiens, 769-P, Kidney
  pEC50: 5.43
  pIC50: 5.43
Homo sapiens, 769-P, Kidney, read-out: Cell Count GI50
  GI50: 3.71 µM
[2]
  pEC50: 4.85
  pIC50: 4.85
Homo sapiens, 786-0, 786-O, Kidney, read-out: Cell Count GI50
  GI50: 13.9 µM
Homo sapiens, 5637, Bladder
  pEC50: 4.82
  pIC50: 4.82
Homo sapiens, 5637, Bladder, read-out: Cell Count GI50
  GI50: 15.1 µM
[3]
  pEC50: 4.98
  pIC50: 4.98
Homo sapiens, A7, Skin (Melanoma), read-out: Cell Count GI50
  GI50: 10.5 µM
[4]
  pEC50: < 4.52
  pIC50: < 4.52
Homo sapiens, A101D, Skin (Melanoma), read-out: Cell Count GI50
  GI50: > 30 µM
[5]
  pEC50: 5.09
  pIC50: 5.09
Homo sapiens, A 172, A172, CNS - Glioma, read-out: Cell Count GI50
  GI50: 8.03 µM
[6]
  pEC50: 4.74
  pIC50: 4.74
Homo sapiens, A253, A-253, Head and Neck, read-out: Cell Count GI50
  GI50: 18.1 µM
[7]
  pEC50: 5.12
  pIC50: 5.12
Homo sapiens, A388, Head and Neck, read-out: Cell Count GI50
  GI50: 7.59 µM
[8]
  pEC50: 4.91
  pIC50: 4.91
Homo sapiens, A498, A498, Kidney, read-out: Cell Count GI50
  GI50: 12.2 µM
[9]
  pEC50: 4.96
  pIC50: 4.96
Homo sapiens, A549, A549, Lung - NSCLC, read-out: Cell Count GI50
  GI50: 10.8 µM
[10]
  pEC50: 5.54
  pIC50: 5.54
Homo sapiens, A673, A-673, Soft Tissue - Sarcoma, read-out: Cell Count GI50
  GI50: 2.87 µM
[11]
  pEC50: 5.24
  pIC50: 5.24
Homo sapiens, A704, A-704, Kidney, read-out: Cell Count GI50
  GI50: 5.41 µM
[12]
  pEC50: 5.24
  pIC50: 5.24
Homo sapiens, A-375, A375, Skin (Melanoma), read-out: Cell Count GI50
  GI50: 5.74 µM
[13]
  pEC50: 5.00
  pIC50: 5.00
Homo sapiens, A-427, A427, Lung - NSCLC, read-out: Cell Count GI50
  GI50: 9.98 µM
[14]
  pEC50: 4.61
  pIC50: 4.61
Homo sapiens, A-431, A431, Head and Neck, read-out: Cell Count GI50
  GI50: 24.8 µM
Homo sapiens, ACHN, Kidney
  pEC50: 5.02
  pIC50: 5.02
Homo sapiens, ACHN, Kidney, read-out: Cell Count GI50
  GI50: 9.47 µM
Homo sapiens, AGS, Stomach
  pEC50: 5.28
  pIC50: 5.28
Homo sapiens, AGS, Stomach, read-out: Cell Count GI50
  GI50: 5.24 µM
[15]
  pEC50: 5.02
  pIC50: 5.02
Homo sapiens, AN3-CA, AN3 CA, Female GU - Uterus, read-out: Cell Count GI50
  GI50: 9.43 µM
[16]
  pEC50: 4.87
  pIC50: 4.87
Homo sapiens, ARH-77, ARH-77, Myeloma, read-out: Cell Count GI50
  GI50: 13.4 µM
[17]
  pEC50: 4.83
  pIC50: 4.83
Homo sapiens, ASPC1, AsPC-1, Pancreas, read-out: Cell Count GI50
  GI50: 14.5 µM
[18]
  pEC50: 5.00
  pIC50: 5.00
Homo sapiens, AU565, AU565, Breast, read-out: Cell Count GI50
  GI50: 10 µM
Homo sapiens, BC-1, Lymphoma
  pEC50: 5.38
  pIC50: 5.38
Homo sapiens, BC-1, Lymphoma, read-out: Cell Count GI50
  GI50: 4.16 µM
[19]
  pEC50: 5.05
  pIC50: 5.05
Homo sapiens, BCP-1, BCP-1, Lymphoma, read-out: Cell Count GI50
  GI50: 8.75 µM
[20]
  pEC50: 4.88
  pIC50: 4.88
Homo sapiens, BE(2)-C, BE(2)C, CNS - Neuroblastoma, read-out: Cell Count GI50
  GI50: 13 µM
[21]
  pEC50: 5.01
  pIC50: 5.01
Homo sapiens, BFTC-905, BFTC-905, Bladder, read-out: Cell Count GI50
  GI50: 9.68 µM
[22]
  pEC50: 5.17
  pIC50: 5.17
Homo sapiens, BHT-101, BHT-101, Endocrine - Thyroid, read-out: Cell Count GI50
  GI50: 6.77 µM
[23]
  pEC50: < 4.52
  pIC50: < 4.52
Homo sapiens, BM-1604, BM-1604, Prostate, read-out: Cell Count GI50
  GI50: > 30 µM
[24]
  pEC50: 4.76
  pIC50: 4.76
Homo sapiens, BPH-1, BPH1, Prostate, read-out: Cell Count GI50
  GI50: 17.3 µM
[25]
  pEC50: 4.85
  pIC50: 4.84
Homo sapiens, BT-20, BT20, Breast, read-out: Cell Count GI50
  GI50: 13.9 µM
Homo sapiens, BT-474, BT474, Breast
  pEC50: 4.59
